Assay results from patent publication US8519149B2, “Tricyclic compounds as mPGES-1 inhibitors” (Glenmark Pharmaceuticals S.A., priority 2010, dated 2013).

Target: T1, Recombinant human mPGES-1 (Homo sapiens, UniProt O14684)
T1 sequence (O14684 1-152): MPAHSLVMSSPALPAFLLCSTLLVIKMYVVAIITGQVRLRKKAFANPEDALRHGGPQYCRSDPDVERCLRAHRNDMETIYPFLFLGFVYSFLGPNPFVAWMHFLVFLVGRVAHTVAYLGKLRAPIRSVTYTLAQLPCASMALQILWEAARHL
Assay: In-vitro mPGES-1 enzyme inhibition assay (PGE2 formation from PGH2, HTRF detection)
Format: biochemical
Conditions: for inhibition at 1 µM: 1 μM test compound, read-out: Percentage inhibition at 1 μM; for inhibition at 1 µM / inhibition at 10 µM: recombinant human mPGES-1 microsomal fraction; for inhibition at 10 µM: 10 μM test compound, read-out: Percentage inhibition at 10 μM; for IC50: class symbols, selected examples
Method in brief: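 IC50 values were derived by nonlinear regression of percent inhibition relative to enzyme reactions run without inhibitor. PGE2 formed from PGH2 with GSH was quantified by antibody-based HTRF after stannous chloride quench. Enzyme source was human mPGES-1 microsomes at 40-60 μg/mL protein; DMSO 0.5% (v/v).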

| SMILES | inhibition at 1 µM [%] | inhibition at 10 µM [%] | IC50 [nM] |
| --- | --- | --- | --- |
| CC1(C)Cc2c(c(C(=O)Nc3ccc(C(F)(F)F)cc3F)cc3nc(Nc4c(Cl)cncc4Cl)[nH]c23)O1 [Example-194, 2-((3,5-Dichloropyridin-4-yl)amino)-N-(2-fluoro-4-(trifluoromethyl)phenyl)-7,7-dimethyl-7,8-dihydro-1H-benzofuro[4,5-d]imidazole-5-carboxamide] | 99.2 | 100 | – |
| CC1(C)Cc2c(c(C(=O)Nc3cc(C(F)(F)F)ccc3F)cc3nc(Nc4c(Cl)cncc4Cl)[nH]c23)O1 [Example-195, 2-((3,5-Dichloropyridin-4-yl)amino)-N-(2-fluoro-5-(trifluoromethyl)phenyl)-7,7-dimethyl-7,8-dihydro-1H-benzofuro[4,5-d]imidazole-5-carboxamide] | 98.8 | 99 | < 50 |
| CC1(C)Cc2c(c(C(=O)Nc3ccc(F)c(C(F)(F)F)c3)cc3nc(Nc4c(Cl)cncc4Cl)[nH]c23)O1 [Example-196, 2-((3,5-Dichloropyridin-4-yl)amino)-N-(4-fluoro-3-(trifluoromethyl)phenyl)-7,7-dimethyl-7,8-dihydro-1H-benzofuro[4,5-d]imidazole-5-carboxamide] | 100 | 98.8 | – |
| CC1(C)Cc2c(c(C(=O)Nc3ccc(F)cc3F)cc3nc(Nc4c(Cl)cncc4Cl)[nH]c23)O1 [Example-197, 2-((3,5-Dichloropyridin-4-yl)amino)-N-(2,4-difluorophenyl)-7,7-dimethyl-7,8-dihydro-1H-benzofuro[4,5-d]imidazole-5-carboxamide] | 99.6 | 99.5 | < 50 |
| Cc1ccc(NC(=O)c2cc3nc(Nc4c(Cl)cncc4Cl)[nH]c3c3c2OC(C)(C)C3)c(Cl)c1 [Example-198, N-(2-Chloro-4-methylphenyl)-2-((3,5-dichloropyridin-4-yl)amino)-7,7-dimethyl-7,8-dihydro-1H-benzofuro[4,5-d]imidazole-5-carboxamide] | 98.7 | 99.7 | < 50 |
| CC1(C)Cc2c(c(C(=O)Nc3cc(F)c(F)cc3F)cc3nc(Nc4c(Cl)cncc4Cl)[nH]c23)O1 [Example-199, 2-((3,5-Dichloropyridin-4-yl)amino)-7,7-dimethyl-N-(2,4,5-trifluorophenyl)-7,8-dihydro-1H-benzofuro[4,5-d]imidazole-5-carboxamide] | 99.4 | 100 | < 50 |
| Cc1cccc(Cl)c1Nc1nc2cc(C(=O)Nc3ccc(F)c(F)c3F)c3c(c2[nH]1)CC(C)(C)O3 [Example-202, 2-((2-Chloro-6-methylphenyl)amino)-7,7-dimethyl-N-(2,3,4-trifluorophenyl)-7,8-dihydro-1H-benzofuro[4,5-d]imidazole-5-carboxamide] | 95.1 | 100 | < 50 |
| CC1(C)Cc2c(c(C(=O)Nc3cc(C4CC4)ccc3F)cc3nc(Nc4c(Cl)cncc4Cl)[nH]c23)O1 [Example-203, N-(5-Cyclopropyl-2-fluorophenyl)-2-((3,5-dichloropyridin-4-yl)amino)-7,7-dimethyl-7,8-dihydro-1H-benzofuro[4,5-d]imidazole-5-carboxamide] | 100 | 94.8 | < 50 |
| Cc1cccc(Cl)c1Nc1nc2cc(C(=O)Nc3ncc(Cl)cc3F)c3c(c2[nH]1)CC(C)(C)O3 [Example-204, N-(5-Chloro-3-fluoropyridin-2-yl)-2-((2-chloro-6-methylphenyl)amino)-7,7-dimethyl-7,8-dihydro-1H-benzofuro[4,5-d]imidazole-5-carboxamide] | 98 | 100 | < 50 |
| CC1(C)Cc2c(c(C(=O)Nc3ncc(Cl)cc3F)cc3nc(Nc4c(Cl)cccc4Cl)[nH]c23)O1 [Example-205, N-(5-Chloro-3-fluoropyridin-2-yl)-2-((2,6-dichlorophenyl)amino)-7,7-dimethyl-7,8-dihydro-1H-benzofuro[4,5-d]imidazole-5-carboxamide] | 99.9 | 100 | < 50 |
| CC1(C)Cc2c(c(C(=O)Nc3ccc(F)c(F)c3F)cc3nc(Nc4c(Cl)cncc4Cl)[nH]c23)O1 [Example-212, 2-((3,5-Dichloropyridin-4-yl)amino)-7,7-dimethyl-N-(2,3,4-trifluorophenyl)-7,8-dihydro-1H-benzofuro[4,5-d]imidazole-5-carboxamide] | 95.1 | 98.8 | < 50 |
| Cn1c(Nc2c(Cl)cncc2Cl)nc2cc(C(=O)Nc3ccc(F)c(C(F)(F)F)c3)c3c(c21)CC(C)(C)O3 [Example-213, 2-((3,5-Dichloropyridin-4-yl)amino)-N-(4-fluoro-3-(trifluoromethyl)phenyl)-1,7,7-trimethyl-7,8-dihydro-1H-benzofuro[4,5-d]imidazole-5-carboxamide] | 96.3 | 97.3 | – |
| Cn1c(Nc2c(Cl)cncc2Cl)nc2cc(C(=O)Nc3cccc(C(F)(F)F)c3)c3c(c21)CC(C)(C)O3 [Example-214, 2-((3,5-Dichloropyridin-4-yl)amino)-1,7,7-trimethyl-N-(3-(trifluoromethyl)phenyl)-7,8-dihydro-1H-benzofuro[4,5-d]imidazole-5-carboxamide] | 98.4 | 96.5 | – |
| Cn1c(Nc2c(Cl)cncc2Cl)nc2cc(C(=O)Nc3ccc(C(F)(F)F)cc3)c3c(c21)CC(C)(C)O3 [Example-215, 2-((3,5-dichloropyridin-4-yl)amino)-1,7,7-trimethyl-N-(4-(trifluoromethyl)phenyl)-7,8-dihydro-1H-benzofuro[4,5-d]imidazole-5-carboxamide] | 96.3 | 94.1 | – |
| Cn1c(Nc2c(Cl)cncc2Cl)nc2cc(C(=O)Nc3ccc(C4CC4)cc3)c3c(c21)CC(C)(C)O3 [Example-216, N-(4-Cyclopropylphenyl)-2-((3,5-dichloropyridin-4-yl)amino)-1,7,7-trimethyl-7,8-dihydro-1H-benzofuro[4,5-d]imidazole-5-carboxamide] | 96.5 | 96.4 | – |
| Cn1c(Nc2c(Cl)cncc2Cl)nc2cc(C(=O)Nc3cc(C4CC4)ccc3F)c3c(c21)CC(C)(C)O3 [Example-217, N-(5-Cyclopropyl-2-fluorophenyl)-2-((3,5-dichloropyridin-4-yl)amino)-1,7,7-trimethyl-7,8-dihydro-1H-benzofuro[4,5-d]imidazole-5-carboxamide] | 96.2 | 99.9 | – |
| Cn1c(Nc2c(Cl)cncc2Cl)nc2cc(C(=O)Nc3cc(C(F)(F)F)ccc3F)c3c(c21)CC(C)(C)O3 [Example-218, 2-((3,5-Dichloropyridin-4-yl)amino)-N-(2-fluoro-5-(trifluoromethyl)phenyl)-1,7,7-trimethyl-7,8-dihydro-1H-benzofuro[4,5-d]imidazole-5-carboxamide] | 99.4 | 100 | – |
| Cn1c(Nc2c(Cl)cncc2Cl)nc2cc(C(=O)Nc3ccc(C(F)(F)F)cn3)c3c(c21)CC(C)(C)O3 [Example-219, 2-((3,5-Dichloropyridin-4-yl)amino)-1,7,7-trimethyl-N-(5-(trifluoromethyl)pyridin-2-yl)-7,8-dihydro-1H-benzofuro[4,5-d]imidazole-5-carboxamide] | 97.8 | 98.5 | – |
| Cn1c(Nc2c(Cl)cncc2Cl)nc2cc(C(=O)NCC3CC3)c3c(c21)CC(C)(C)O3 [Example-220, N-(Cyclopropylmethyl)-2-((3,5-dichloropyridin-4-yl)amino)-1,7,7-trimethyl-7,8-dihydro-1H-benzofuro[4,5-d]imidazole-5-carboxamide] | 81.5 | 99.8 | – |
